Here are results for two compounds from ChEMBL document CHEMBL5500399, “Design, Synthesis, and Biological Evaluation of 1,2,4-Oxadiazole Derivatives Containing an Aryl Carboxylic Acid Moiety as Potent Sarbecovirus Papain-like Protease Inhibitors” (J Med Chem, 2024).

A word on the EC50: it is the concentration at which the effect is half-maximal. A higher EC50 goes with a need for much substance.

Test [1] concerns SARS-CoV-2. Kind of test: microbe, parasite or virus in culture. Particulars: Severe acute respiratory syndrome coronavirus 2, 2019-nCoV, Vero C1008.
For test [2], the system named is SARS-CoV-2. As to the kind of experiment: microbe, parasite or virus in culture. Particulars: Severe acute respiratory syndrome coronavirus 2, Omicron BA.1, Vero C1008.

Structures are written as SMILES.

Consider `CC(c1nc(-c2ccc(-c3ccc(C(=O)O)s3)cc2)no1)c1cccc2ccccc12` (centres undefined), for which the results for the concentration giving a half-maximal response (EC50) with SARS-CoV-2 [1] and with SARS-CoV-2 [2] were 5.4 µM and 25.2 µM, respectively.

`Cc1ccc(-c2noc(C(C)c3ccc(-c4ccccc4)c(F)c3)n2)cc1NCc1ccc(C(=O)O)s1` (racemic): the figures for the EC50 with SARS-CoV-2 [1] and in the test on SARS-CoV-2 [2] were 4.3 µM and 79.8 µM, respectively.
